According to ChEMBL document CHEMBL5634160, “Synthesis, biological evaluation and action mechanism of 7H-[1,2,4] triazolo [3,4-b] [1,3,4] thiadiazine-phenylhydrazone derivatives as α-glucosidase inhibitors” (Eur J Med Chem, 2023):

What was measured:
[1] = molecular target: Alpha-glucosidase (Saccharomyces cerevisiae S288c, UniProt P53341+P38158+P07265); assay: Inhibition of Saccharomyces cerevisiae alpha-glucosidase using nitrophenol-alpha-D-glucopyranoside (pNPG) as substrate incubated for 15 mins; format: protein assay
[2] = tested on: COc1cc(/C=N/Nc2nnc3n2N=C(c2ccccc2)CS3)cc(OC)c1O; assay: Mixed-type inhibition of Saccharomyces cerevisiae alpha-glucosidase using nitrophenol-alpha-D-glucopyranoside (pNPG) as substrate assessed as Vmax at 24 to 48 uM measured after 15 mins by Lineweaver-Burk plot analysis; format: protein assay; conditions: dose 24-48 µM

Chain of Alpha-glucosidase (Saccharomyces cerevisiae S288c) (P07265 whole entry, looked up): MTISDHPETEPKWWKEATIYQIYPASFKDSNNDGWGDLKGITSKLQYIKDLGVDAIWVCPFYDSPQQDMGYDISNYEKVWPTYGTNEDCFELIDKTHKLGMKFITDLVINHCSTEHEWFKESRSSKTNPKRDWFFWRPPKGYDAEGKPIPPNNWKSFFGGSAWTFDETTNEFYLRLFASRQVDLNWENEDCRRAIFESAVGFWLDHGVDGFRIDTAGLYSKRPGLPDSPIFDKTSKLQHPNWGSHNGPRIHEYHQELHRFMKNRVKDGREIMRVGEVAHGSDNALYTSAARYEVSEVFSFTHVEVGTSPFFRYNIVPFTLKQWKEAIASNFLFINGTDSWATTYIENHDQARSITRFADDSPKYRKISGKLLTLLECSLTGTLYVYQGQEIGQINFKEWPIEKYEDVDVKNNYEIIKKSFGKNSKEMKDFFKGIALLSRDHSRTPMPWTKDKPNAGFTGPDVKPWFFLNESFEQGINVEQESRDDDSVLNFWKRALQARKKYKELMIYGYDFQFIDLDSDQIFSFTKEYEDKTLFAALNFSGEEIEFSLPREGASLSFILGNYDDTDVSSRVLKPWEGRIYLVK
Chain of Alpha-glucosidase (Saccharomyces cerevisiae S288c) (P38158 whole entry, looked up): as the sequence (P07265 whole entry, looked up) above, with R273T, V305L counted along it
Chain of Alpha-glucosidase (Saccharomyces cerevisiae S288c) (P53341 whole entry, looked up): as the sequence (P07265 whole entry, looked up) above, with R273T, F467L counted along it

Molecule	IC50 [1] [µM]	Vmax [2] [µM/L.min]
CN(C)c1ccc(/C=N/Nc2nnc3n2N=C(c2ccccc2)CS3)cc1	35.58	–
Alpha-glucosidase (Saccharomyces cerevisiae S288c) (from UniProt P53341+P38158+P07265)	–	0.07
COc1ccc(/C=N/Nc2nnc3n2N=C(c2ccccc2)CS3)cc1OC	140.2	–

Continued, in another order:

IC50 [1] [µM]	Molecule	Vmax [2] [µM/L.min]
> 250	Fc1ccccc1/C=N/Nc1nnc2n1N=C(c1ccccc1)CS2	–
213.5	Oc1ccc(/C=N/Nc2nnc3n2N=C(c2ccccc2)CS3)cc1	–
85.86	COc1ccc(/C=N/Nc2nnc3n2N=C(c2ccccc2)CS3)cc1	–
55.42	Oc1ccccc1/C=N/Nc1nnc2n1N=C(c1ccccc1)CS2	–
42.36	Clc1cccc(/C=N/Nc2nnc3n2N=C(c2ccccc2)CS3)c1	–
